# Data as given in patent publication US20220289732A1, “HETEROCYCLIC WDR5 INHIBITORS AS ANTI-CANCER COMPOUNDS” (NOVARTIS AG, priority 2019, published 2022).
# Experiments:
# WDR5 = WDR5 (Homo sapiens, UniProt P61964); test: WDR5 HTRF binding assay; conditions: read-out: (a) WDR5 HTRF Pep Val v.1[Inhibitor/IC50]Qualified AC50
# Method in brief: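 In this HTRF displacement format, biotinylated MLL1 WIN peptide (3762-3773, 20 nM) binds WDR5 (6 nM) in 25 mM Hepes pH 7.5 with 100 mM NaCl, 2 mM DTT and 0.1% BSA for 20 min at rt. Detection used streptavidin-APC/anti-His-Eu for 1 hr. IC50 came from dose-response fits of normalized signal; 15 nM biotin-PEG-His peptide served as counter assay.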
# [1] = biological target: wild type MLL1 four-member complex (MLL1-4C) (Homo sapiens, UniProt P61964); test: MLL1 LC-MS assay (SAH production); format: biochemical; conditions: read-out: (b) MLL LCMS Peptide Val.v.1 Qualified AC50
# Method in brief: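 SAH formation, measured by LC-MS/MS after a TFA quench containing d4-SAH, was normalised to no-compound and no-enzyme controls and fitted to a dose-response curve for IC50. Reactions ran 120 min at rt (pH 8.0 Tris buffer) with final 30 nM MLL1 four-member complex, 2.5 μM SAM and 10 μM biotinylated H3[1-21] peptide, after a 20-min enzyme/SAM-compound preincubation.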
# MV4-11 cells = test: MV4-11 6-day cell growth CTG (CellTiter-Glo) assay; format: cell-based; conditions: Homo sapiens, MV4-11, 144 h, 6 days, read-out: (c) MLL/WDR5 cell proliferation assay//MLL/WDR5 proliferation MV4:11 Qualified AC50
# Method in brief: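 IC50 comes from a dose-response fit of % inhibition relative to DMSO controls, with viable cells measured by CellTiter-Glo luminescence. Compounds were tested over 12 points (1:3, starting at 50 μM final) on MV4-11 cells plated at 300/well and grown 6 days.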
SMILES,IC50 (WDR5),AC50 [1],AC50 (MV4-11 cells)
"CNc1nccn1Cc1cc2c(c(-c3cc(CO)cnc3Cl)c1)CCN(Cc1ccc(F)c(C#N)c1)C2=O [Example 69, 5-((5-(2-chloro-5-(hydroxymethyl)pyridin-3-yl)-7-((2-(methylamino)-1H-imidazol-1-yl)methyl)-1-oxo-3,4-dihydroisoquinolin-2(1H)-yl)methyl)-2-fluorobenzonitrile]",10 to 1000 nM,10 to 1000 nM,10 to 1000 nM
"CNc1nccn1Cc1cc2c(c(-c3cc(CO)cnc3Cl)c1)CCN(Cc1ccc(F)c(F)c1)C2=O [Example 70, 5-(2-chloro-5-(hydroxymethyl)pyridin-3-yl)-2-(3,4-difluorobenzyl)-7-((2-(methylamino)-1H-imidazol-1-yl)methyl)-3,4-dihydroisoquinolin-1(2H)-one]",10 to 1000 nM,10 to 1000 nM,10 to 1000 nM
"CNc1nccn1Cc1cc2c(c(-c3cn(C)nc3C)c1)CCN([C@H](C)c1cc(OC)c(F)cn1)C2=O [Example 71, (R)-5-(1,3-dimethyl-1H-pyrazol-4-yl)-2-(1-(5-fluoro-4-methoxypyridin-2-yl)ethyl)-7-((2-(methylamino)-1H-imidazol-1-yl)methyl)-3,4-dihydroisoquinolin-1(2H)-one]",10 to 1000 nM,10 to 1000 nM,10 to 1000 nM
"CNc1nccn1Cc1cc2c(c(-c3ccnn3C)c1)CCN(Cc1ccc(F)c(OC)c1)C2=O [Example 72, 2-(4-fluoro-3-methoxybenzyl)-5-(1-methyl-1H-pyrazol-5-yl)-7-((2-(methylamino)-1H-imidazol-1-yl)methyl)-3,4-dihydroisoquinolin-1(2H)-one]",10 to 1000 nM,10 to 1000 nM,10 to 1000 nM
"CNc1nccn1Cc1cc2c(c(-c3cc(CO)cnc3Cl)c1)CCN(Cc1cccc(OC(F)F)c1)C2=O [Example 73, 5-(2-chloro-5-(hydroxymethyl)pyridin-3-yl)-2-(3-(difluoromethoxy)benzyl)-7-((2-(methylamino)-1H-imidazol-1-yl)methyl)-3,4-dihydroisoquinolin-1(2H)-one]",10 to 1000 nM,10 to 1000 nM,10 to 1000 nM
"CNc1nccn1Cc1cc2c(c(-c3cc(CO)cnc3Cl)c1)CCN(Cc1ccc(F)c(OC(F)F)c1)C2=O [Example 74, 5-(2-chloro-5-(hydroxymethyl)pyridin-3-yl)-2-(3-(difluoromethoxy)-4-fluorobenzyl)-7-((2-(methylamino)-1H-imidazol-1-yl)methyl)-3,4-dihydroisoquinolin-1(2H)-one]",10 to 1000 nM,10 to 1000 nM,10 to 1000 nM
"CNc1nccn1Cc1cc2c(c(-c3cn(C)nc3C#N)c1)CCN(Cc1ccc(F)c(OC)c1)C2=O [Example 77, 4-(2-(4-fluoro-3-methoxybenzyl)-7-((2-(methylamino)-1H-imidazol-1-yl)methyl)-1-oxo-1,2,3,4-tetrahydroisoquinolin-5-yl)-1-methyl-1H-pyrazole-3-carbonitrile]",10 to 1000 nM,10 to 1000 nM,10 to 1000 nM
"CNc1nccn1Cc1cc2c(c(C3CC3)c1)CCN(Cc1cnc(F)c(OC)c1)C2=O [Example 79, 5-cyclopropyl-2-((6-fluoro-5-methoxypyridin-3-yl)methyl)-7-((2-(methylamino)-1H-imidazol-1-yl)methyl)-3,4-dihydroisoquinolin-1(2H)-one]",10 to 1000 nM,10 to 1000 nM,10 to 1000 nM
"CCOc1cc([C@H](C)N2CCc3c(cc(Cn4ccnc4NC)cc3C3CC3)C2=O)cnc1C#N [Example 80, (S)-5-(1-(5-cyclopropyl-7-((2-(methylamino)-1H-imidazol-1-yl)methyl)-1-oxo-3,4-dihydroisoquinolin-2(1H)-yl)ethyl)-3-ethoxypicolinonitrile]",10 to 1000 nM,10 to 1000 nM,10 to 1000 nM
"CCOc1cc([C@H](C)N2CCc3c(cc(Cn4ccnc4NC)cc3C3CC3)C2=O)ncc1F [Example 81, (S)-5-cyclopropyl-2-(1-(4-ethoxy-5-fluoropyridin-2-yl)ethyl)-7-((2-(methylamino)-1H-imidazol-1-yl)methyl)-3,4-dihydroisoquinolin-1(2H)-one]",10 to 1000 nM,10 to 1000 nM,10 to 1000 nM
"CCOc1cc([C@@H](C)N2CCc3c(cc(Cn4ccnc4NC)cc3C3CC3)C2=O)ncc1C#N [Example 82, (R)-6-(1-(5-cyclopropyl-7-((2-(methylamino)-1H-imidazol-1-yl)methyl)-1-oxo-3,4-dihydroisoquinolin-2(1H)-yl)ethyl)-4-ethoxynicotinonitrile]",10 to 1000 nM,10 to 1000 nM,10 to 1000 nM
"CCOc1cc([C@H](C)N2CCc3c(cc(Cn4ccnc4NC)cc3C3CC3)C2=O)ncc1C#N [Example 83, (S)-6-(1-(5-cyclopropyl-7-((2-(methylamino)-1H-imidazol-1-yl)methyl)-1-oxo-3,4-dihydroisoquinolin-2(1H)-yl)ethyl)-4-ethoxynicotinonitrile]",10 to 1000 nM,10 to 1000 nM,10 to 1000 nM
"CCOc1cc(CN2CCc3c(cc(Cn4ccnc4NC)cc3C3CC3)C2=O)cnc1C#N [Example 84, 5-((5-cyclopropyl-7-((2-(methylamino)-1H-imidazol-1-yl)methyl)-1-oxo-3,4-dihydroisoquinolin-2(1H)-yl)methyl)-3-ethoxypicolinonitrile]",10 to 1000 nM,10 to 1000 nM,10 to 1000 nM
"CNc1nccn1Cc1cc2c(c(C3CC3)c1)CCN([C@@H](C)c1cc(OC)c(F)cn1)C2=O [Example 85, (S)-5-cyclopropyl-2-(1-(5-fluoro-4-methoxypyridin-2-yl)ethyl)-7-((2-(methylamino)-1H-imidazol-1-yl)methyl)-3,4-dihydroisoquinolin-1(2H)-one]",10 to 1000 nM,10 to 1000 nM,10 to 1000 nM
"CCn1nc(CN2CCc3c(cc(Cn4ccnc4NC)cc3C3CC3)C2=O)cc1OC [Example 86, 5-cyclopropyl-2-((1-ethyl-5-methoxy-1H-pyrazol-3-yl)methyl)-7-((2-(methylamino)-1H-imidazol-1-yl)methyl)-3,4-dihydroisoquinolin-1(2H)-one]",10 to 1000 nM,10 to 1000 nM,10 to 1000 nM
"CCOc1cc(CN2CCc3c(cc(Cn4ccnc4NC)cc3C3CC3)C2=O)nn1C [Example 87, 5-cyclopropyl-2-((5-ethoxy-1-methyl-1H-pyrazol-3-yl)methyl)-7-((2-(methylamino)-1H-imidazol-1-yl)methyl)-3,4-dihydroisoquinolin-1(2H)-one]",10 to 1000 nM,10 to 1000 nM,10 to 1000 nM
"CNc1nccn1Cc1cc2c(c(N3CCCC3)c1)CCN([C@@H](C)c1cc(OC)c(F)cn1)C2=O [Example 89, (S)-2-(1-(5-fluoro-4-methoxypyridin-2-yl)ethyl)-7-((2-(methylamino)-1H-imidazol-1-yl)methyl)-5-(pyrrolidin-1-yl)-3,4-dihydroisoquinolin-1(2H)-one]",< 10 nM,10 to 1000 nM,10 to 1000 nM
"CCOc1cc([C@H](C)N2CCc3c(cc(Cn4ccnc4NC)cc3C(F)F)C2=O)ncc1F [Example 91, (S)-5-(difluoromethyl)-2-(1-(4-ethoxy-5-fluoropyridin-2-yl)ethyl)-7-((2-(methylamino)-1H-imidazol-1-yl)methyl)-3,4-dihydroisoquinolin-1(2H)-one]",10 to 1000 nM,10 to 1000 nM,10 to 1000 nM
